Reference: patent publication US5770625A, “Butyryl-tyrosinyl spermine, analogs thereof and methods of preparing and using same” (priority 1994, dated 1998)
Like-named read-outs stand apart in the source and are kept apart here.

System: postsynaptic QUIS-R of locust leg muscle
Test: Antagonism of neurally-evoked twitch contraction of locust retractor unguis nerve-muscle preparation
Set-up: species or system Schistocerca gregaria
Settings: for IC50: read-out: IC50
Description: Electrophysiological studies. The metathoracic retractor unguis nerve-muscle preparation of the locust Schistocerca gregaria was dissected and mounted in a small Perspex bath as described previously (21). The pharmacological activity on the locust nerve muscle preparation, using reduction in neurally evoked twitch amplitude as the measure of activity. Ten fractions were pharmacologically active. […] Further purification of this fraction by reverse-phase HPLC gave four peaks (FIG. 2B), the most pharmacologically was in the major peak (hatched FIG. 2B) . This fraction gave 1.1 mg of toxin as amorphous powder.
The retractor unguis muscle and its nerve were dissected from the metathoracic legs of adult, female locusts (Schistocerca gregaria) and mounted in a Perspex perfusion chamber as described by Usherwood and Machili (21) and Bateman, et al. (14). The muscle was stretched to maximal body length and attached at its tendon or apodeme to a Grass FT 10-strain gauge by a short length of nylon thread. The volume of the muscle bath was about 0.5 ml and its contents could be exchanged within 1 sec. The preparation was perfused continuously at the rate of 5-10 ml min^-1 (except during the application of toxin (see below)) with standard locust saline of the following composition (mM): NaCl, 180; KCl, 10; CaCl2, 2; Hepes, 10; buffered to pH 6.8. The retractor unguis muscle is innervated by two excitatory motoneurons (30) and an inhibitory motoneuron (19,32), but the influence of the latter on the responsiveness of the muscle is slight. Maximal stimulation of the retractor unguis nerve at 0.2 Hz produced a series of twitch contractions of constant amplitude, which were maintained for many hours in good preparations. The test compounds were kept at -20° C. They were dissolved in locust saline on the day of the assay and tested at room temperature. The compounds were applied by pipette to a nerve-muscle preparation such that the contents of the perfusion bath were completely replaced by the test solution. Exposure to the test compound lasted 20 min. Because of the limited availability of some of the compounds, the preparation was not perfused during this period. However, the amplitude of the retractor unguis muscle twitch rarely changed by more than 5-10% over a 20 minute period. During application of the test solutions the stimulation frequency was raised to 0.6 Hz for brief periods to test for stimulus frequency-dependent effects on twitch amplitude (31,37). Dose-inhibition data were obtained by testing the effects, on single retractor unguis muscle preparations, of a range of concentrations of the test compounds. Each concentration of the respective samples was tested at least thee times, and each compound was assayed usually over a 100-fold concentration range (a total of 7-10 concentrations). The standard deviations for twitch inhibition for any given concentration of a toxin rarely exceed 10%. Those compounds for which the deviation was greater than this are identified in Tables 1-7. There was some variation in the potency of PhTX-343 and the test compounds between nerve-muscle preparations. In order to compensate for this, the following procedure was adopted: PhTX-343 was assayed at a variety of concentrations on eight retractor unguis nerve-muscle preparations to give a cumulative dose-inhibition relationship for this toxin. The concentration of PhTX-343 which reduced the twitch contraction by 50% (IC50) was then determined by fitting a curve to the data using the following equation: [formula] where: [T]= toxin concentration, I= % inhibition, Imax =maximum inhibition= 100% and n' represents the Hill slope coefficient. […] The ratio of the actual reduction in twitch amplitude obtained with this single concentration of PhTX-343 and the 50% reduction that was anticipated from the cumulative dose-inhibition relationship for this toxin, was then used as a factor to normalize the data for the test compound. […]

[1] = Table 3, region C modifications
[2] = Table 3, relative to PhTX-343 = 1.0
[3] = Table 1, region A modifications, 20 min exposure, normalized with PhTX-343, ** SD < 30%
[4] = Table 1, relative to PhTX-343 = 1.0
[5] = Table 2, region B modifications, * SD < 20%
[6] = Table 2, relative to PhTX-343 = 1.0
[7] = Table 4, terminal amino group modifications, * SD < 20%
[8] = Table 4, relative to PhTX-343 = 1.0
[9] = Table 7, mono-acyl spermine analogues
[10] = Table 7, mono-acyl spermine analogues, relative to PhTX-343
[11] = Table 5, modifications to more than one region
[12] = Table 7, bis-acyl spermine analogues

CCCC(=O)N[C@@H](Cc1ccc(O)cc1)C(=O)NCCCNCCCCNCCCN [drawing 41]
IC50 [1]: 23 µM
Relative Potency [2]: 1.0

CCCC(=O)N[C@@H](Cc1ccc(O)cc1)C(=O)NCCCNCCCNCCCCN [drawing 23]
IC50 [3]: 15 µM
Relative Potency [4]: 1.5

CCCC(=O)N[C@@H](Cc1ccc(O)cc1)C(=O)NCCCNCCCCNCCCN [drawing 31]
IC50 [5]: 23 µM
Relative Potency [6]: 1.0

NCCCNCCCCNCCCNC(=O)[C@H](Cc1ccc(O)cc1)NC(=O)Cc1ccccc1 [Compound 24]
potency compared with PhTX-343 or other analogues (in words): less potent than PhTX-343

NCCCNCCCCNCCCNC(=O)[C@H](Cc1ccc(O)cc1)NC(=O)CCCCCNC(=O)CCCCC1SCC2NC(=O)NC21 (stereo partly drawn)
IC50 (M) [1]: insol.

CCCC(=O)N[C@@H](Cc1ccc(O)cc1)C(=O)NCCCNCCCCNCCCNC(=O)CN [drawing 59]
IC50 [7]: 100 µM
Relative Potency [8]: 0.2

CCCCCCC(=O)NCCCNCCCCNCCCN [drawing 77]
IC50 [9]: 100 µM
Relative Potency [10]: 0.2

CCCC(=O)N[C@@H](Cc1ccc(O)cc1)C(N)=O [drawing 26]
IC50 [3]: 500 µM
Relative Potency [4]: 0.05

CCCC(=O)NCCCNCCCCNCCCN
IC50 (M) [9]: agonist

CCCC(=O)N[C@@H](Cc1ccc(O)cc1)C(=O)NCCCNCCCCNCCCNC(=O)C(N)CCCCNC(=O)C(N)CCCCN (stereo partly drawn) [drawing 63]
IC50 [7]: 11 µM
Relative Potency [8]: 2.1

CCCC(=O)N[C@@H](Cc1ccc(O)cc1)C(=O)NCCCCN [drawing 25]
IC50 [3]: 2000 µM
Relative Potency [4]: 0.01

CCCC(=O)NCC(=O)NCCCNCCCCNCCCN [Compound 16, N-butyryl-L-glycine-spermine-amide]
potency compared with PhTX-343 or other analogues (in words): greatly reduced activity

NCCCNCCCCNCCCNC(=O)[C@H](Cc1ccc(O)cc1)NC(=O)C1CCCCC1 [drawing 46]
IC50 [1]: 9.3 µM
Relative Potency [2]: 2.5

CC(=O)N[C@@H](Cc1ccc(O)cc1)C(=O)NCCCNCCCCNCCCN [Compound 18]
potency compared with PhTX-343 or other analogues (in words): slight but significant reduction in potency

CCCC(=O)N[C@@H](Cc1ccc(O)cc1)C(=O)NCCCCNCCCNCCCN [drawing 22]
IC50 [3]: 18 µM
Relative Potency [4]: 1.3

CCCC(=O)N[C@@H](Cc1ccc(O)cc1)C(=O)NCCCNCCCCNCCCNC(=O)[C@@H](N)CCCNC(=N)N [drawing 62]
IC50 [7]: 6.3 µM
Relative Potency [8]: 3.7

CCCCCCCCCC(=O)NCCCNCCCCNCCCN [drawing 78]
IC50 [9]: 10 µM
Relative Potency [10]: 2.3

CCCC(=O)N[C@@H](Cc1ccc(O)cc1)C(=O)NCCCCNCC(C)CNCCCN (stereo partly drawn) [Compound 7]
potency compared with PhTX-343 or other analogues (in words): did not greatly alter potency

CCCC(=O)N[C@@H](Cc1ccc(O)cc1)C(=O)NCCCNCCCCNCCCNC(=O)CCCN [drawing 60]
IC50 [7]: 68 µM
Relative Potency [8]: 0.3

CCCC(=O)N[C@@H](Cc1cc(I)c(O)c(I)c1)C(=O)NCCCNCCCCNCCCNC(=O)[C@@H](N)CCCNC(=N)N [Compound 39, diiodo-PhTX-arginine]
potency compared with PhTX-343 or other analogues (in words): more potent than PhTX-343

CCCC(=O)N[C@@H](Cc1cc(I)c(O)c(I)c1)C(=O)NCCCNCCCCNCCCNC(=O)[C@@H](N)CCCCN [drawing 65]
IC50 [11]: 1.7 µM
Relative Potency (Table 5, relative to PhTX-343): 14

NCCCNCCCCNCCCNC(=O)[C@H](Cc1ccc(O)cc1)NC(=O)C1CCCCC1 [Compound 22]
potency compared with PhTX-343 or other analogues (in words): equal to that of compound 19

CCCC(=O)N[C@@H](Cc1ccc(OC(C)=O)cc1)C(=O)NCCCNCCCCNCCCN [drawing 33]
IC50 [5]: 33 µM
Relative Potency [6]: 0.7

NCCCNCCCCNCCCNC(=O)[C@H](Cc1ccc(O)cc1)NC(=O)c1ccccc1 [Compound 23]
potency compared with PhTX-343 or other analogues (in words): equipotent with the C10 analogue 20

CCCC(=O)N[C@@H](Cc1cc(I)c(O)c(I)c1)C(=O)NCCCNCCCCNCCCNC(=O)[C@@H](N)CCCCN [Compound 38, diiodo-PhTX-lysine]
potency compared with PhTX-343 or other analogues (in words): more potent than PhTX-343

CCCCCCC(=O)NCCCNCCCCNCCCNC(=O)CCCCCC
IC50 (M) [12]: agonist

CCCCCCCCCC(=O)NCCCNCCCCNCCCNC(=O)CCCCCCCCC [drawing 82]
IC50 [12]: 23 µM
Relative Potency (Table 7, bis-acyl spermine analogues, relative to PhTX-343): 1.0

[N-]=[N+]=Nc1ccc(C(=O)N[C@@H](Cc2ccc(O)cc2)C(=O)NCCCNCCCCNCCCN)cc1 [drawing 50]
IC50 [1]: 4.2 µM
Relative Potency [2]: 5.5

CCCC(=O)N[C@@H](Cc1ccc(O)cc1)C(=O)NCCCNCCCCNCCCNC(C)=O [drawing 58]
IC50 [7]: 300 µM
Relative Potency [8]: 0.08

CCCC(=O)N[C@@H](Cc1cc(I)c(O)c(I)c1)C(=O)NCCCNCCCCNCCCNC(=O)[C@@H](N)CCCNC(=N)N [drawing 66]
IC50 [11]: 0.7 µM
Relative Potency (Table 5, relative to PhTX-343): 33

CCCC(=O)N[C@@H](Cc1c[nH]c2ccccc12)C(=O)NCCCNCCCCNCCCN [Compound 17]
increase in potency compared with PhTX-343: 10 fold

NCCCNCCCCNCCCNC(=O)[C@H](Cc1ccc(O)cc1)NC(=O)CCCNc1ccc([N+](=O)[O-])cc1[N+](=O)[O-]
IC50 [1]: 53 µM
Relative Potency [2]: 0.4

CCCCC(CNCCCN)CNCCCCNC(=O)[C@H](Cc1ccc(O)cc1)NC(=O)CCC (stereo partly drawn) [drawing 28]
IC50 [3]: 4 µM
Relative Potency [4]: 5.6

CCCC(=O)N[C@@H](Cc1ccc(O)cc1)C(=O)NCCCNCCCCNCCCNC(=O)[C@@H](N)CCCNC(=N)N [Compound 36, PhTX-343-L-arginine-amide]
potency compared with PhTX-343 or other analogues (in words): increased potency

[N-]=[N+]=Nc1ccc(C(=O)N[C@@H](Cc2cc(I)c(O)c(I)c2)C(=O)NCCCNCCCCNCCCNC(=O)[C@@H](N)CCCCN)cc1 [Compound 41, N- (.rho.-azidobenzamide)-di-iodo-L-tyrosyl-spermine-L-lysine-triamide]
potency compared with PhTX-343 or other analogues (in words): more potent than the latter

CCCC(=O)N[C@@H](Cc1ccc(O)cc1)C(=O)NCCC[N+](C)(C)CCCC[N+](C)(C)CCC[N+](C)(C)C [Compound 9]
potency compared with PhTX-343 or other analogues (in words): reduced potency compared with PhTX-343

CCCC(=O)N[C@@H](Cc1ccc(O)cc1)C(=O)NCCCCN [Compound 5, PhTX-4]
potency compared with PhTX-343 or other analogues (in words): reduced potency

CCCCCCC(=O)N[C@@H](Cc1ccc(O)cc1)C(=O)NCCCNCCCCNCCCNC(=O)[C@H](Cc1ccc(O)cc1)NC(=O)CCCCCC
IC50 (M) (Table 6, bis analogues of PhTX-343): insol.

CCCC(=O)N[C@@H](Cc1ccc(O)cc1)C(=O)NCCCNCCCNCCCCN [Compound 3, PhTX-334]
potency compared with natural PhTX-433 (in words): higher potency than the natural PhTX-433 toxin
physiological activity relative to that of PhTX-433, by locust muscle twitch inhibition concentration (PhTX-433 = 100%): 125%
effect on the neurally-evoked twitch contraction (in words) (toxin 1-10 μM): influenced the twitch contraction in the same qualitative fashion as PhTX-433

CCCC(=O)N[C@@H](C)C(=O)NCCCNCCCCNCCCN [Compound 15]
potency compared with PhTX-343 or other analogues (in words): slightly reduced

CCCC(=O)N[C@@H](Cc1ccc(OCc2ccccc2)cc1)C(=O)NCCCNCCCCNCCCN [drawing 34]
IC50 [5]: 24 µM
Relative Potency [6]: 1.0

CCCC(=O)N[C@@H](Cc1ccc(O)cc1)C(=O)NCCCCNCCCN [Compound 4, PhTX-43]
potency compared with PhTX-343 or other analogues (in words): reduced potency
